Measurements reported in patent publication US6482948B1, “Thienopyrimidine compounds and salts thereof and process for the preparation of the same” (Nippon Soda Co., Ltd., priority 1999, dated 2002).

Experiments:
[1] = target: PDE 1 (Ca-calmodulin activatable PDE); assay: Phosphodiesterase inhibiting activity, PDE 1; assay type: biochemical; conditions: isozyme from dog heart; 1 μM [3H]-cAMP or [3H]-cGMP; read-out: Inhibition of PDE Activity: IC50 PDE 1
Method: (§1) Pharmacological Test Example 1: Phosphodiesterase Inhibiting Activity
(§2) Cyclic nucleotide phosphodiesterases from human platelets and from the heart and kidney of a dog were eluted by the concentration gradient method with 70 to 1000 mM of sodium acetate on DEAE-cellulose column chromatography (Whatman Co. Ltd., DE-52, φ3.2×13 cm) according to the method of Thompson and others (Thompson W. J., et al., Advances in Cyclic Nucleotide Research: 10, 69-92, 1979), and separated into isozymes. PDE 5 (cGMP specific PDE) and PDE 3 (cGMP inhibitable cAMP PDE) were separated from the platelets, PDE 1 (Ca-calmodulin activatable PDE) from the heart, and PDE 4 (cGMP non-inhibitable cAMP PDE) from the kidney. The method of Thompson, et al was partially modified to measure phosphodiesterase activities: 1 μM of [3H]-cAMP or [3H]-cGMP was decomposed with phosphodiesterase. The produced 5′-AMP or 5′-GMP was decomposed to adenosine or guanosine with a snake venom (Sigma V7000). The reaction solution was added to anion exchange resin (Bio-Rad Co. Ltd., AG1-X8). Non-adsorbed adenosine or guanosine was counted by a liquid scintillation counter. A concentration causing 50% inhibition of the enzyme activity (IC50) was calculated from concentration inhibition curves.

PDE 2 = target: T1, PDE 2 (Homo sapiens, UniProt O00408); assay: Phosphodiesterase inhibiting activity, PDE 2; assay type: biochemical; conditions: 1 μM [3H]-cAMP or [3H]-cGMP; source of isozyme not given; read-out: Inhibition of PDE Activity: IC50 PDE 2
T1 construct: eluted by the concentration gradient method with 70 to 1000 mM of sodium acetate on DEAE-cellulose column chromatography; from tissue
Method: [Worded in the source for another target; this target is reported under the same test.] as §1, §2

[2] = target: T2, PDE 3 (cGMP inhibitable cAMP PDE) (Homo sapiens, UniProt Q14432); assay: Phosphodiesterase inhibiting activity, PDE 3; assay type: biochemical; conditions: isozyme from human platelets; 1 μM [3H]-cAMP or [3H]-cGMP; read-out: Inhibition of PDE Activity: IC50 PDE 3
T2 construct: from tissue; host or cells: human platelets
Method: as §1, §2

[3] = target: PDE 4 (cGMP non-inhibitable cAMP PDE); assay: Phosphodiesterase inhibiting activity, PDE 4; assay type: biochemical; conditions: isozyme from dog kidney; 1 μM [3H]-cAMP or [3H]-cGMP; read-out: Inhibition of PDE Activity: IC50 PDE 4
Method: as §1, §2

[4] = target: T3, PDE 5 (cGMP specific PDE) (Homo sapiens, UniProt O76074); assay: Phosphodiesterase inhibiting activity, PDE 5; assay type: biochemical; conditions: isozyme from human platelets; 1 μM [3H]-cAMP or [3H]-cGMP; read-out: Inhibition of PDE Activity: IC50 PDE 5
T3 construct: from tissue; host or cells: human platelets
Method: as §1, §2

thoracic aortas = assay: Vasodilating activity, phenylephrine-contracted thoracic aorta ring preparations (Magnus method); parameters: species or system Sprague-Dawley male rats; conditions: rat thoracic aorta ring preparations contracted with 1 μM phenylephrine, 37° C., drug added cumulatively
Method: Pharmacological Test Example 2: Vasodilating Activity
A vasodilating activity was assessed according to the method of Ken-ichi Hirata and Mitsuhiro Yokoyama (Arteriosclerosis and Hyperlipemia Research Strategies, published by Shujunsha (Japan), pages 275-277, 1996): The thoracic aortas were extracted from Sprague-Dawley male rats (weighing 180 to 360 g). After unnecessary connective tissues were removed, the aortas were cut to 5mm-long pieces to make ring strip preparations, and assessed by the Magnus method (37° C.). A nutrient solution used was a Krebs-Henseleit solution aerated with 5% carbon dioxide gas and 95% oxygen gas. Specimens were equilibrated for about 60 minutes, and then contracted by adding 1 μM of phenylephrine. 1 μM of acetylcholine was added at the second phenylepherine-induced contraction in order to confirm an endothelial cell dependent relaxation response. At the third phenylepherine-induced contraction, a drug to test was added cumulatively, and the relaxation action was observed. Drugs to test were all dissolved in DMSO to use for the tests. The tested drugs were assessed by 50% relaxation rates (EC50) obtained from vasodilation rates to respective concentrations (the maximum relaxation was measured by adding 100 μM of papaverine).

T2 sequence (Q14432 whole entry): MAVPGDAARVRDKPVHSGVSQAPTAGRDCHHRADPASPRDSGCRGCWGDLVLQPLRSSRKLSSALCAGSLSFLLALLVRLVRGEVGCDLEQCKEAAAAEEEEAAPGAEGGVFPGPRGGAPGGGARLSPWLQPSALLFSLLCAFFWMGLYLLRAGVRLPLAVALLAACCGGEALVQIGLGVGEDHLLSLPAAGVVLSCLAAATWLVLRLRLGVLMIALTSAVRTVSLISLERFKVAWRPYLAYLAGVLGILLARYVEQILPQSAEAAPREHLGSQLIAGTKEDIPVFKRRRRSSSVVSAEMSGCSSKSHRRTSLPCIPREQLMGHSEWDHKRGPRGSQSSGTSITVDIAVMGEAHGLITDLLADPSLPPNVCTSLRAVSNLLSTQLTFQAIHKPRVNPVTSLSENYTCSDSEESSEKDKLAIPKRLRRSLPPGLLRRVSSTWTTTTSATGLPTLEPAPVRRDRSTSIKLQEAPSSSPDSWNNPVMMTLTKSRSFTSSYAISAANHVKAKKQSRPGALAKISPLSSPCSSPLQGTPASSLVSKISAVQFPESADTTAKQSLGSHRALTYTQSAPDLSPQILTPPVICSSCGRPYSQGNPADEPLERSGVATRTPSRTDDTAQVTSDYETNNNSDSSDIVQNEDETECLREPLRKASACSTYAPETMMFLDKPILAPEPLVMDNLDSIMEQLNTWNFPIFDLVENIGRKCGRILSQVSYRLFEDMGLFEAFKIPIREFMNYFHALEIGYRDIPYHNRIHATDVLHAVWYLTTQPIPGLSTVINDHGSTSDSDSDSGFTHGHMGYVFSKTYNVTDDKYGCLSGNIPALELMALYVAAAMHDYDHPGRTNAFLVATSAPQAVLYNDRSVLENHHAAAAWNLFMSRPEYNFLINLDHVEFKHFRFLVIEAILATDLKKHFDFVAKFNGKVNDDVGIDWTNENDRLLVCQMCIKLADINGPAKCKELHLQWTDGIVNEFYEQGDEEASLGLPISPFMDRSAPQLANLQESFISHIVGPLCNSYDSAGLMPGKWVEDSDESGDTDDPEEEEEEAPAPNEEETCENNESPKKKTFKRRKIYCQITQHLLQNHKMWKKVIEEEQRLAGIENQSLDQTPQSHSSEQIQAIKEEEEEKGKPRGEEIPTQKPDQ
T1 sequence (O00408 whole entry): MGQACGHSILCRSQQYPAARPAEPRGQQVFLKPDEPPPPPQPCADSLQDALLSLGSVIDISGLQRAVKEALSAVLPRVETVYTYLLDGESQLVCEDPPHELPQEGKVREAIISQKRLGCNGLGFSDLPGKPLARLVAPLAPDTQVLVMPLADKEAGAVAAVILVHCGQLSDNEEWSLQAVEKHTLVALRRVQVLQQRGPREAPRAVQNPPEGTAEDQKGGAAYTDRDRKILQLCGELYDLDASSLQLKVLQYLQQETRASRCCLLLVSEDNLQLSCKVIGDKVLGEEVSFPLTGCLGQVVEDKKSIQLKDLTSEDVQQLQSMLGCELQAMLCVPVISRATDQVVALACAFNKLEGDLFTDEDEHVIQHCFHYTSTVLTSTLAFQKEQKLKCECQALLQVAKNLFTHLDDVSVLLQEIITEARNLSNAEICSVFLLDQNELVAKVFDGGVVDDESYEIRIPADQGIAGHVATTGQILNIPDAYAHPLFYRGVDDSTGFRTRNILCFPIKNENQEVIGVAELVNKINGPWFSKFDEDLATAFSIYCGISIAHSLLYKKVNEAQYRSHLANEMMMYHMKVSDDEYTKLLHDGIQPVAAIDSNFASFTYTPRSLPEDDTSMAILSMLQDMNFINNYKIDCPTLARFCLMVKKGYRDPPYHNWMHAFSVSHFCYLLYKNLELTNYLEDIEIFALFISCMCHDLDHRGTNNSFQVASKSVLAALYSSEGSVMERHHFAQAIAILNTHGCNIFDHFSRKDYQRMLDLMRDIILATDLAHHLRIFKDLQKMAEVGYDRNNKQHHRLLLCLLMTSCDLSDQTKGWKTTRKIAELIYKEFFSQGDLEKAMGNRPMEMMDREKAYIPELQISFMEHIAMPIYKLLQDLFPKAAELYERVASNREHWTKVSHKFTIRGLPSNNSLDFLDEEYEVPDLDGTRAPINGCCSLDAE

IC50 [1]: > 10 µM | IC50 (PDE 2): > 10 µM | IC50 [2]: > 10 µM | IC50 [3]: 6.4 µM | IC50 [4]: 0.006 µM | EC50 (thoracic aortas): 0.0031 µM | melting point: 145 to 147 °C
SMILES: COc1ccc(CNc2nc(C(=O)Nc3cccnc3)nc3sc4c(c23)CCN(C)C4)cc1Cl [1-81]
